Three compounds from PMC9500072, “Topical application of an irreversible small molecule inhibitor of lysyl oxidases ameliorates skin scarring and fibrosis” (Nature Communications, 2022) can be followed below.

The target in one experiment is T1, Human Fibroblast LOX (Homo sapiens, UniProt P28300).
T1 construct: Fibroblast LOX; endogenous in cells; host or cells: human fibroblasts
T1 sequence (P28300 169-417): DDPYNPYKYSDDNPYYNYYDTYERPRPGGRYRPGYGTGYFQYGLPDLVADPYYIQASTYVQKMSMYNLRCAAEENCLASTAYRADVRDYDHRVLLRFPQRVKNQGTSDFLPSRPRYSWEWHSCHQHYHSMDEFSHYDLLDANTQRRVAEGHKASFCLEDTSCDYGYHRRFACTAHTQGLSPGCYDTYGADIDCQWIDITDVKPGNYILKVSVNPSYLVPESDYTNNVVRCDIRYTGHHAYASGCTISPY
Put plainly: Amine oxidase inhibition profile, human fibroblast LOX. Format: biochemical. The protocol: The measurement of the enzymatic activity of all lysyl oxidase family members was based on the detection of hydrogen peroxide with an Amplex-Red oxidation assay, as previously described; miniaturized in 384 well formats, with the appropriate combination of substrate and assay buffer for each individual enzyme. After a 30 min pre-incubation of the enzyme at 37 °C with the test compound (or with different incubation times for the time-dependency assay), one volume of reaction mixture containing 120 μM Amplex Red (AR) (Life Technologies), 1.5 U/mL horseradish peroxidase (HRP) (Sigma-Aldrich) and the specific substrate was added to each sample. The relative fluorescence units (RFU) were then measured every 2.5 min for 30 min at 37 °C, excitation 565 nm and emission 590, on a BMG Clariostar Microplate Reader. All the substrates were used at concentrations corresponding to their Km towards the corresponding enzyme, or with a range of different concentrations for the substrate competition experiments.
Lysyl oxidases assay buffer contained 1.2 M urea, 50 mM sodium borate buffer, pH 8.2 and 100 µM β-aminoproprionitrile (BAPN, Sigma-Aldrich) was used for low control.
Supplem entary Materi als:
Supplementary Table S1: Amine oxidase inhibition profile of PXS -4787, PXS-6302 and
Supplementary Table S2: Perm eability profile of PXS -6302.

Experiment [1] concerns bleomycin-induced skin fibrosis. Description: Bleomycin-induced skin fibrosis in mice. Format: in vivo, C57BL/6 mice. Also noted: Skin LOX activity: scale not given here. The protocol: With a pharmacokinetic and pharmacodynamic profile supportive of the potential as a potent topical anti-fibrotic treatment, we next moved to evaluate the in vivo efficacy of PXS-6302. Intradermal injections of bleomycin on alternate days for three weeks induces fibrosis[21],[22]. […] In this model, starting from Day 3 and continuing until Day 20, bleomycin-dosed mice (0.1U, alternate days), were treated once daily topically with 0% (vehicle) or 1.5% PXS-6302 oil in water cream (2 ×100 μL applications at a 10-min interval). […] As bleomycin also stimulates the expression of degrading enzymes such as matrix metalloproteases, the significant drop in hydroxyproline and immature crosslinks could be related to both the reduced production as well as the accelerated degradation of these matrix proteins.
Cell pellets or isolated tissue samples were completely hydrolyzed in 1.5 mL 6 M hydrochloric acid for 24 h at 105 °C. After complete hydrolysis, samples were dried using a vacuum dryer and reconstituted using 200 µL MilliQ water. The sample clean-up was performed using solid-phase extraction method which uses C18 and SCX solid-phase extraction cartridges for sample purification. The samples were run on UPLC-MS-MS (Mass Spectrometer: Thermo Scientific TSQ Endura Triple quadrupole, UPLC: Thermo Scientific Dionex UltiMate 3000) using Agilent RRHD SB-C18,2.1x50mm,1.8um analytical column and solvent A: 10 mM ammonium formate, 0.1% formic acid, 0.1% HFBA in H2O and solvent B: 10 mM ammonium formate, 0.1% formic acid, 0.1% HFBA in MeOH and analyzed as previously described. Limits of detection are listed in Supplementary Table S4.
8–10-week old C57BL/6 mice (n = 10 each group) were used to induce skin fibrosis. Bleomycin (Bleomycin sulfate from Streptomyces verticillicus, Euroasia) dry powder 1.5 IU/mg was reconstituted in saline at 2 IU/ml concentration. Starting on day 0 and continuing on alternate days thereafter, animals received subcutaneous injection of Bleomycin (0.1 IU in 50 µL volume) and/or saline on the right flank. For each animal, each dose was injected at a single site. The injections were continued for 20 days throughout the study. Starting from day three, vehicle cream or vehicle plus drug cream were applied topically once a daily treatment to a 2 cm × 2 cm area on the right dorsal flank of the animal for 20 days. On Day 21, all animals were euthanized and the skin tissue was collected for further histopathological analysis. The skin tissue was fixed in 4% PFA and sectioned skin was stained with Masson’s Trichrome, Collagen I and LOX and used to assess dermal fibrosis. Masson’s Trichrome was used to assess fibrotic index. Collagen Stain was subjectively scored for intensity as compared to control tissue. LOX Stain was subjectively scored as stain accumulation compared to control tissue. All images were assessed by assessors blinded to the treatment group. Composite skin/immunohistochemistry scoring tables used are in the Supplementary Information (Supplementary Tables S5, S6).

The test system of experiment [2] is full-thickness excision injury scar. Description: Porcine excision injury model. The format is in vivo, pigs.
A further experiment addresses Adrenergic β2 (Homo sapiens, UniProt P07550). Description: Eurofins panel 204110. Format: binding.
The test system of experiment [3] is Calcium Channel L-Type, Dihydropyridine. Description: Eurofins panel 214600. Format: binding, rat.
A further experiment deals with Endothelin ETA (Homo sapiens, UniProt P25101). Put plainly: Eurofins panel 224010. The format is binding.
A further experiment has as its target Glucocorticoid (Homo sapiens, UniProt P04150). Put plainly: Eurofins panel 232030. Format: binding.
The target in another experiment is Histamine H1 (Homo sapiens, UniProt P35367). Description: Eurofins panel 239610. Format: binding.
For the next experiment, the target named is Muscarinic M2 (Homo sapiens, UniProt P08172). Put plainly: Eurofins panel 252710. Format: binding.
The target in a further experiment is Muscarinic M3 (Homo sapiens, UniProt P20309). Put plainly: Eurofins panel 252810. Format: binding.
The target of a further experiment is Opiate δ1 (OP1, DOP) (Homo sapiens, UniProt P41143). Put plainly: Eurofins panel 260130. The format is binding.
The next experiment has as its target Opiate µ(OP3, MOP) (Homo sapiens, UniProt P35372). Description: Eurofins panel 260410. The format is binding.
Experiment [4] has as its target Serotonin (5-Hydroxytryptamine) 5-HT1A (Homo sapiens, UniProt P08908). Description: Eurofins panel 271110. Format: binding.
The target in experiment [5] is Serotonin (5-Hydroxytryptamine) 5-HT3 (Homo sapiens, UniProt P46098). Put plainly: Eurofins panel 271910. Format: binding.
[6] abbreviates: read-out: Human Fibroblast LOX IC50.
Setting [7] is: […] cream topically once daily, Day 3 to Day 20.

SMILES strings stand for the structures. Several values for one entry are separate records, joined by “and”; a condition that tells them apart may be missing. Equal entries are not always repeated. Where two headings read alike, the source gives them in different places.

Serotonin (5-Hydroxytryptamine) 5-HT3, sequence (P46098 24-478): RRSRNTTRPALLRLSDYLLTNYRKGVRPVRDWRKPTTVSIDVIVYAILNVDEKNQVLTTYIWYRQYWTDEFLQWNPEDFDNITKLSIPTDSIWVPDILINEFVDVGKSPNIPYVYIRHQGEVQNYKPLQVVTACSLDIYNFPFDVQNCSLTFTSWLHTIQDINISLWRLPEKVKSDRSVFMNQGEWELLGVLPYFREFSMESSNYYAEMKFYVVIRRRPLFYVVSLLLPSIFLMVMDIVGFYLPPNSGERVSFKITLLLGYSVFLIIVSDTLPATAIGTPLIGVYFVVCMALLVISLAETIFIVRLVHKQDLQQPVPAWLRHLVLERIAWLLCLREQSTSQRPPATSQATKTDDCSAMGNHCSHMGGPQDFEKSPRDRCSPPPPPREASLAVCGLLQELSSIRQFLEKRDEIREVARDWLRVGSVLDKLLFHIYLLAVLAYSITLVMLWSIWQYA
Opiate δ1 (OP1, DOP), sequence (P41143 whole entry): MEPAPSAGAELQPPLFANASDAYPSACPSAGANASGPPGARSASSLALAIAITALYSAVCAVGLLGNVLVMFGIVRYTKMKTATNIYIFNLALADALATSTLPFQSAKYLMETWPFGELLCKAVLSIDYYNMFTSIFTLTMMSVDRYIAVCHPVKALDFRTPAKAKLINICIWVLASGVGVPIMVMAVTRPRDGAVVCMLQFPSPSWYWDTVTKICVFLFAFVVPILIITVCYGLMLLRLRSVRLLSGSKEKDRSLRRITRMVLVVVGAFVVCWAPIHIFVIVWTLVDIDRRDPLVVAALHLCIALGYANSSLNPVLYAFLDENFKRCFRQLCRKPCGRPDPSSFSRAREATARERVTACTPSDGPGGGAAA
Adrenergic β2, sequence (P07550 whole entry): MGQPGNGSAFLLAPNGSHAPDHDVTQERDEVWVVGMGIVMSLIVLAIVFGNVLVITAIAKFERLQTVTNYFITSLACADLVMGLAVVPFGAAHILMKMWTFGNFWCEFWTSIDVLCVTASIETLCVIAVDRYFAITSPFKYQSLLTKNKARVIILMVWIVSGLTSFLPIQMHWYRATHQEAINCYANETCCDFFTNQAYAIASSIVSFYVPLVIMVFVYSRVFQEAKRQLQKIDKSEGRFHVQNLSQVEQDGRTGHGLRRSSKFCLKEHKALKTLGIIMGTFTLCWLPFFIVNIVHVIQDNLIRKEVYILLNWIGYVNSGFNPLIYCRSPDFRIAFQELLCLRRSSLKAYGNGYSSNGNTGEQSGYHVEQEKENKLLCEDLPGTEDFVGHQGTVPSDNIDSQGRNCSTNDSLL
Histamine H1, sequence (P35367 whole entry): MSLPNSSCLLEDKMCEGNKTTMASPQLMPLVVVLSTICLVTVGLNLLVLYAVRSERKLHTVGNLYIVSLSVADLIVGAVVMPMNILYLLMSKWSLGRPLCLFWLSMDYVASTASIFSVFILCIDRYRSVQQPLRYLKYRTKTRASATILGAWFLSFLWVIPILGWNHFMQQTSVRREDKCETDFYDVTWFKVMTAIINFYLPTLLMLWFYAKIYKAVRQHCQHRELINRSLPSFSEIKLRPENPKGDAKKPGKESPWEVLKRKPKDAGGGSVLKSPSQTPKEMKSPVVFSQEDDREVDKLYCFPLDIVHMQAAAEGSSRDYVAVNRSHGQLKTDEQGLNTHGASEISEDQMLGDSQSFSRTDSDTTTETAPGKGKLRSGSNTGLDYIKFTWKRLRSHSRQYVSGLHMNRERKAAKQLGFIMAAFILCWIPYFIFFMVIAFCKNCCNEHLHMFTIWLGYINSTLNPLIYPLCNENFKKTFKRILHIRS
Glucocorticoid, sequence (P04150 whole entry): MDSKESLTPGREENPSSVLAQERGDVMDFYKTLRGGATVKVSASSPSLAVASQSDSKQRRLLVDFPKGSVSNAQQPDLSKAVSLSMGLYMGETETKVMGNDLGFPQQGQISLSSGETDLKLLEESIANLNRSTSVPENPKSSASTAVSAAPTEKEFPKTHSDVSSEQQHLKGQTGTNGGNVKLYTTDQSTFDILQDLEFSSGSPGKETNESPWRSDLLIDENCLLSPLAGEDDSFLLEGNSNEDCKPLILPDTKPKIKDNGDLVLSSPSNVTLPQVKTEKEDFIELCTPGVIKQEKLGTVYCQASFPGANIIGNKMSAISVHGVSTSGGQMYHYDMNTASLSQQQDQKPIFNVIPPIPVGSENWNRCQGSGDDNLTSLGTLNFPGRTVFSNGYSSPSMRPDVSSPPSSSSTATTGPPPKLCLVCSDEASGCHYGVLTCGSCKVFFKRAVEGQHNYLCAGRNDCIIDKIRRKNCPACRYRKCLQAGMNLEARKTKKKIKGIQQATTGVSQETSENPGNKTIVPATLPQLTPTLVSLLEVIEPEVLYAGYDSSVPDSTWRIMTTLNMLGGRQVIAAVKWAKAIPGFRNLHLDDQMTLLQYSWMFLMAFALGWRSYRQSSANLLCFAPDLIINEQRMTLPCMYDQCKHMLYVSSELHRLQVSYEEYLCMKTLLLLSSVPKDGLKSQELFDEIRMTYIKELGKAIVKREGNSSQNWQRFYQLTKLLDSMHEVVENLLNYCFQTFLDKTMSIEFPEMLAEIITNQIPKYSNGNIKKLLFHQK
Muscarinic M2, sequence (P08172 whole entry): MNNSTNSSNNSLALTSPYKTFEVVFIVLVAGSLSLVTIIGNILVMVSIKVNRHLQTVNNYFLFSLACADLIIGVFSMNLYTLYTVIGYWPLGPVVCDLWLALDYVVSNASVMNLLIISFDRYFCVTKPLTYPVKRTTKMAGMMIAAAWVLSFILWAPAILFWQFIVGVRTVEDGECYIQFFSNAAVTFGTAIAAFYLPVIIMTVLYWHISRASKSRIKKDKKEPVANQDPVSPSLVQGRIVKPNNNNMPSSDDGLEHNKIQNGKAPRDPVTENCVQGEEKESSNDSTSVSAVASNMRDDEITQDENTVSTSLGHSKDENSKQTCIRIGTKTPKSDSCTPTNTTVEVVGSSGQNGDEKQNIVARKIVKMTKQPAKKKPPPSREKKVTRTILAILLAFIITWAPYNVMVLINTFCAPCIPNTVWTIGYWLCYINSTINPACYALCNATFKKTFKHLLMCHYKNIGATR
Serotonin (5-Hydroxytryptamine) 5-HT1A, sequence (P08908 whole entry): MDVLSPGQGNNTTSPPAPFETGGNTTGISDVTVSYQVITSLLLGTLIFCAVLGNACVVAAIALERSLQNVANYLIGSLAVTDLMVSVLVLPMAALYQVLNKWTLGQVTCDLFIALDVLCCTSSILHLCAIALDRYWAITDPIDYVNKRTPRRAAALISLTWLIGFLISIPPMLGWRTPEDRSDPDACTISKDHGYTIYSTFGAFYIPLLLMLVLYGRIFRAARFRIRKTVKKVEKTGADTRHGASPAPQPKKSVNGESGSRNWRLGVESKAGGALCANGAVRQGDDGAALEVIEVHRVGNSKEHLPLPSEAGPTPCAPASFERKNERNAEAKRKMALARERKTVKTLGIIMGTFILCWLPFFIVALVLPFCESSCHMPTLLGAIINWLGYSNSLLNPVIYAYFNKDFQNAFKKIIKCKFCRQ
Endothelin ETA, sequence (P25101 21-427): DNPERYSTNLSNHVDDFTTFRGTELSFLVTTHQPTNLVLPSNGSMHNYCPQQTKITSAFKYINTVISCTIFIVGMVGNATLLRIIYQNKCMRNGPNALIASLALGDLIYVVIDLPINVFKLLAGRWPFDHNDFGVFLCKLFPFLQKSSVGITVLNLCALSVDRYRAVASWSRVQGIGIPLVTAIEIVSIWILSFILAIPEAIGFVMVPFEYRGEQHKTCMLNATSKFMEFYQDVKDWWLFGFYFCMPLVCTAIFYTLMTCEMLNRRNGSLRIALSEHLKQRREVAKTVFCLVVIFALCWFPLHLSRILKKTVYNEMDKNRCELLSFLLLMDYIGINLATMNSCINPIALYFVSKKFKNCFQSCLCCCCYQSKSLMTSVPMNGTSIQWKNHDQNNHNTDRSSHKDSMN
Muscarinic M3, sequence (P20309 whole entry): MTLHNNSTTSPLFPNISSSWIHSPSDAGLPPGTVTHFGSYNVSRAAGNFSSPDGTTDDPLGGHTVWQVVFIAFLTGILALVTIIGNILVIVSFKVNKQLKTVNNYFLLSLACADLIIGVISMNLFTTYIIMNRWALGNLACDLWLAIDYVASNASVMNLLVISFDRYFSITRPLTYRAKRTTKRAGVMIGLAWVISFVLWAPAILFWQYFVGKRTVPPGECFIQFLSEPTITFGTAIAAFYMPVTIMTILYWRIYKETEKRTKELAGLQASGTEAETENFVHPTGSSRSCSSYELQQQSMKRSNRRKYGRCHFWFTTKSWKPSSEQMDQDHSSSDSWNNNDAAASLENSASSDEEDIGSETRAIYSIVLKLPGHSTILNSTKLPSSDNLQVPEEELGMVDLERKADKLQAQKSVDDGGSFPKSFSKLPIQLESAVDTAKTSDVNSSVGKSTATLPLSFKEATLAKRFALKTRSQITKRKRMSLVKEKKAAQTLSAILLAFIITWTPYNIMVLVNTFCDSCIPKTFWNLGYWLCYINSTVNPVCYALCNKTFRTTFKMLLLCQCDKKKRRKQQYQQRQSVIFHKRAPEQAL
Opiate µ(OP3, MOP), sequence (P35372 whole entry): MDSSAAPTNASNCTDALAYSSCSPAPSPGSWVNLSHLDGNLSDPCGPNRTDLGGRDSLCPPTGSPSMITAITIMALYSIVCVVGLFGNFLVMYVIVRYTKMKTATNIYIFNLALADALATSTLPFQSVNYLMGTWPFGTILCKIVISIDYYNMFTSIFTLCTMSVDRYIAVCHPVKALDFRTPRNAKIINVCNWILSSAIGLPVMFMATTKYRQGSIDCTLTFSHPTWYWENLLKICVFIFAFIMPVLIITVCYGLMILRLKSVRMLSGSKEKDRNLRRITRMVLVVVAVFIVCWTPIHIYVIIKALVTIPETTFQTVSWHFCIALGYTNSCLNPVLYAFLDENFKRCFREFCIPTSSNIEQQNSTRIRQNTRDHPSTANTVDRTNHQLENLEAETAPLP

On to `N#CCCN` [BAPN, β-aminoproprionitrile, reference compound], for which the “Human Fibroblast LOX pIC50±SD” value on Human Fibroblast LOX came out at 5.5 ± 0.1. Besides, on Human Fibroblast LOX (setting [6]), the IC50 was found to be 3.04 µM.
In the case of `NC/C=C(\F)CS(=O)(=O)c1ccccc1` [PXS-4787], the IC50 on Human Fibroblast LOX (setting [6]) came to 5.19 µM. For the same compound, the composite skin score result in experiment [1] ([…] cream topically once daily) is “Reduced”. Besides, the “immunohistochemistry COL1 score” value in experiment [1] ([…] cream topically once daily) is “decreas ed”. In [1] ([…] cream topically once daily), the “immunohistochemistry LOX score” value is recorded as “Decreased”. Also, the “Surgeon score dose response” value was 16 and 20 and 14 in experiment [2] (0.5 %); 11 and 10 and 12 and 9 in experiment [2] (3%). Further, in experiment [2] (3% cream, 24 hours after final application), the “Lox enzyme activity in scars” value was “significantly inhibited”. The “scar appearance rank (0 best to 3 worst) by blinded plastic surgeons” value in experiment [2] (3% cream, treatment commenced at 3 weeks post-injury, analysed at 12 weeks) is on record as “significant improvements in scar appearance”. Moreover, in experiment [2] (PXS-4787, individual samples), the “LOX activity S/N” value is 2.7 and 1.5 and 1.8 and 1.4 and 1.3. In addition, the inhibition at 10 µM at Adrenergic β2 (10 µM) amounted to 10%; at Endothelin ETA (10 µM), 4%; at Glucocorticoid (10 µM), 3%; on Histamine H1 (10 µM), 14%; against Muscarinic M2 (10 µM), 7%; against Muscarinic M3 (10 µM), 27%. In addition, the inhibition at 10 µM against Opiate δ1 (OP1, DOP) (10 µM) is 5%; at Opiate µ(OP3, MOP) (10 µM), 3%; in experiment [4] (10 µM), 0%; in [5] (10 µM), 6%. Further, the “% Inh.” value in experiment [3] (10 µM) is -4%.
`NC/C=C(\F)C(F)(F)S(=O)(=O)c1ccccc1` [PXS-6302]: the IC50 on Human Fibroblast LOX (setting [6]) is 4.51 µM; on Human Fibroblast LOX (read-out: Human Fibroblast LOX pIC50±SD (converted)), 3.98 µM. In [1] (Bleo + PXS-6302, individual animals), the “Skin LOX activity” value is 0.8656 and 1.07 and 1.02 and 1.046 and 0.9944 and 1.027 and 1.022 and 1.017 and 1.088. The Skin thickness in experiment [1] (PXS-6302, individual animals) was 0.34 mm and 0.36 mm and 0.41 mm and 0.33 mm and 0.39 mm and 0.38 mm and 0.4 mm. In addition, in experiment [1] ([…] cream topically once daily), the composite skin score entry was “significantly reduced”. In addition, in experiment [1] ([…] cream topically once daily), the “immunohistochemistry COL1 score” value is “significantly reduced”. Besides, in experiment [1] ([…] cream topically once daily), the “immunohistochemistry LOX score” value is reported as “significantly reduced”. In addition, in experiment [1] (setting [7]), the “LOX activity in skin” value is recorded as “significant reduction”. Moreover, the “fibrosis as assessed by skin thickness” value in experiment [1] (setting [7]) is “significantly reduced”. The hydroxyproline content result in experiment [1] (setting [7]) is reported as “reduced”. Further, in experiment [1] (setting [7]), the “immature crosslinking (DHLNL and HLNL)” value is given as “reduced”. Further, the “Excision injury scar scores (average score of all surgeons for each wound/tx group)” value in experiment [2] (3%) was 9 and 6.667 and 6 and 5.667 and 5 and 6.333 and 9.667 and 9.333. The “scar score 1–10 by blinded plastic surgeons” value in [2] (3% cream once daily, 12 weeks) was “significantly higher scores”. Also, in [2] (24 h after the final dose, once daily cream), the “LOX activity in scar tissue” value is “significantly reduced”. Besides, the “S/N ration LOX activity (Fig. 8A)” value in experiment [2] (porcine scar 24 h after final daily application, individual samples) is 1.073 and 0.9572 and 1.114 and 1.845 and 1.506. Besides, the inhibition at 30 µM at Adrenergic β2 (read-out: % Inh.) was 17%; on Endothelin ETA (read-out: % Inh.), 7%; at Glucocorticoid (read-out: % Inh.) it was 13%; at Histamine H1 (read-out: % Inh.), 10%; on Muscarinic M2 (read-out: % Inh.), 16%; at Muscarinic M3 (read-out: % Inh.), 15%. Further, the inhibition at 30 µM is 26% at Opiate δ1 (OP1, DOP) (read-out: % Inh.); 12% on Opiate µ(OP3, MOP) (read-out: % Inh.); 3% in experiment [4] (read-out: % Inh.); 6% in experiment [5] (read-out: % Inh.). Also, the “% Inh.” value in experiment [3] (30 µM) turned out to be 2%.
